Reference: US20140005163A1 (NOVARTIS AG, priority 2010, published 2014)
pIC50: −log10 of the molar value.

Assays:
[1] = system: PKB Ser473 phosphorylation in Rat1-myr-HA-p110 delta cells; assay: Reverse protein array assay, PKB Ser473 phosphorylation in Rat1-myr-p110 delta cells; assay type: cell-based; conditions: read-out: p-PKB IC50
Summary of the method: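 Lysates were arrayed at four dilutions, and phospho-PKB Ser473 was quantified by relative fluorescence signal. They came from Rat1-myr-HA-p110 alpha, beta or delta cells exposed for 30 min at 37 °C to an 8-point compound series with 0.2% DMSO constant.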

[2] = molecular target: T1, PI3K alpha (Homo sapiens, UniProt P42336); assay: PI3K alpha kinase assay (Kinase-Glo luminescence); assay type: biochemical
T1 construct: p85(iSH2) fusion partner (see partner chain) (N); His tag (C); made in house; host or cells: baculovirus; Tn5 (Trichoplusia ni) or TiniPro insect cells
T1 sequence (P42336 with tags, fused parts or gaps limits assumed): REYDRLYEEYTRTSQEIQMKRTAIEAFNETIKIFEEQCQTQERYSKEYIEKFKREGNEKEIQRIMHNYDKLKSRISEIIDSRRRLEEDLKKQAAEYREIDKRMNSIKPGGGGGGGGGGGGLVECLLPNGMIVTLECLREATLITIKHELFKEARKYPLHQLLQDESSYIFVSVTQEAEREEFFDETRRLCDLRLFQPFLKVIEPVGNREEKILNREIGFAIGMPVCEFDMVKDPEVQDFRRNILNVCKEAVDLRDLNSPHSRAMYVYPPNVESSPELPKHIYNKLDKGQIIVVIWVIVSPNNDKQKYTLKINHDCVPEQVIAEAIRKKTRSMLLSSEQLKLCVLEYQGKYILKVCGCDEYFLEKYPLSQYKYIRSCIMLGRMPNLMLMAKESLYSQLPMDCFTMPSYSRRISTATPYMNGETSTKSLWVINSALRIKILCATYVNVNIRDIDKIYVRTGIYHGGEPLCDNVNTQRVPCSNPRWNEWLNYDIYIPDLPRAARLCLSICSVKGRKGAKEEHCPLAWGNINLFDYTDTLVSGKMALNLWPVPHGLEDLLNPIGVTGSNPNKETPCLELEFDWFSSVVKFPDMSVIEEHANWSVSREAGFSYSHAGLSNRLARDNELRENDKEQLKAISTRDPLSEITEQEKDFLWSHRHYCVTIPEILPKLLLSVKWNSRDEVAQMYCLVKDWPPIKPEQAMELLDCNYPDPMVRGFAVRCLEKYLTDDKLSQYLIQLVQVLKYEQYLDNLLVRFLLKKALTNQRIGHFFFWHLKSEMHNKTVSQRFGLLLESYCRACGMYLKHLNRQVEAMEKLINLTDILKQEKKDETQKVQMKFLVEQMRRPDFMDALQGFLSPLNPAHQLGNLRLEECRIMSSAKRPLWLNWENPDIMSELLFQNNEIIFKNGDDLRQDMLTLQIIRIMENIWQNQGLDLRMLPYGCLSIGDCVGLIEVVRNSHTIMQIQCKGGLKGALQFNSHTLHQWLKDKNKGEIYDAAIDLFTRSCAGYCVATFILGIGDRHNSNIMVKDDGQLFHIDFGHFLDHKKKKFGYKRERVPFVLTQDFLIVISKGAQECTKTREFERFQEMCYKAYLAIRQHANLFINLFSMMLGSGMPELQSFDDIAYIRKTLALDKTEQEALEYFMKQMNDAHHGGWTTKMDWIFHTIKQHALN
Summary of the method: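 PI3Kα construct EMV B1075 (10 nM final) was preincubated with 10 μg/mL phosphatidylinositol in 10 mM Tris-HCl pH 7.5, 3 mM MgCl2, 50 mM NaCl, 0.05% CHAPS, 1 mM DTT. Reaction started with 1 μM ATP, 60 min at room temperature; remaining ATP measured by Kinase-Glo luminescence. IC50 from 4-parameter logistic fit of 8-point titrations.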

[3] = molecular target: T2, PI3K delta (Homo sapiens, UniProt O00329); assay: PI3K delta kinase assay (Kinase-Glo luminescence); assay type: biochemical
T2 construct: for the full-length p110-d subunit are generated and fused by overlapping PCR; p85(iSH2) fusion partner (see partner chain) (N); His tag (C); made in house; host or cells: baculovirus; Tn5 (Trichoplusia ni) or TiniPro insect cells
T2 sequence (O00329 with tags, fused parts or gaps limits assumed): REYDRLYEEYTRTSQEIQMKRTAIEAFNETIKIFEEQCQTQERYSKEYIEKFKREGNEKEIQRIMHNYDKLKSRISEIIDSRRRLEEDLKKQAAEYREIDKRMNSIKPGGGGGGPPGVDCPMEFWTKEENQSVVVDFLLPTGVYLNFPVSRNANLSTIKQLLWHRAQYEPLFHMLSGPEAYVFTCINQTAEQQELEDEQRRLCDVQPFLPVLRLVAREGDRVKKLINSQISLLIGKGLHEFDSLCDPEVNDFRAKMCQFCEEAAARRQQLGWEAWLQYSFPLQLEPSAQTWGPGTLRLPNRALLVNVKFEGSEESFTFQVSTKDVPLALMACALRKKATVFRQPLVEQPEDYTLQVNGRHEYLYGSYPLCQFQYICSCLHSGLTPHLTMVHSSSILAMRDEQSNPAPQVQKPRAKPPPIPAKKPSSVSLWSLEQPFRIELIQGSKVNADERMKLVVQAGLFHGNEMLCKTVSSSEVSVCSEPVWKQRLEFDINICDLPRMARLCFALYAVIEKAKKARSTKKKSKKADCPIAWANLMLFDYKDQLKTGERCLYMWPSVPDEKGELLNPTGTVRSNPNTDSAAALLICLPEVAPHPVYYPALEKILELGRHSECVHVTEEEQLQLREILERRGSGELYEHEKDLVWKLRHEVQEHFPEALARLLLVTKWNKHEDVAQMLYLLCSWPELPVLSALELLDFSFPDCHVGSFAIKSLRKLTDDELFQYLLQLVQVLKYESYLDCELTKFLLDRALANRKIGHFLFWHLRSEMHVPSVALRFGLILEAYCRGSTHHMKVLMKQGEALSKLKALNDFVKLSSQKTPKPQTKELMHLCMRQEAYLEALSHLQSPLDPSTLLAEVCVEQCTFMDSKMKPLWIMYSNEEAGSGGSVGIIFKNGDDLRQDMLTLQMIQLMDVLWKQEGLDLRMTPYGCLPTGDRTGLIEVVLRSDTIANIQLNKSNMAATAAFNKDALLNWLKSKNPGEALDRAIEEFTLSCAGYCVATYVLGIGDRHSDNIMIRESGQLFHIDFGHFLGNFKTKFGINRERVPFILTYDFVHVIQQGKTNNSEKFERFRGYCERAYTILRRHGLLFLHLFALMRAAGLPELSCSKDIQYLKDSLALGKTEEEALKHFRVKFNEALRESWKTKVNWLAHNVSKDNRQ
Summary of the method: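 Recombinant p85(iSH2)-Gly linker-p110δ full-length construct (BV1060, C-terminal His tag) was used at 10 nM with 10 μg/mL phosphatidylinositol and 1 μM ATP in 10 mM Tris-HCl pH 7.5, 3 mM MgCl2, 50 mM NaCl, 0.05% CHAPS, 1 mM DTT. After 60 min at room temperature, remaining ATP was measured by Kinase-Glo luminescence.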

pIC50 [1]	pIC50 [2]	pIC50 [3]	Compound
8.10	8.05	7.92	CN(C)c1ccc(-c2ccc3ncc4c(c3c2)n(-c2cn(C)nc2Cl)c(=O)n4C)cn1 [Example 4.9, 1-(3-Chloro-1-methyl-1H-pyrazol-4-yl)-8-(6-dimethylamino-pyridin-3-yl)-3-methyl-1,3-dihydro-imidazo[4,5-c]quinolin-2-one]
8.05	7.74	6.83	CNc1ccc(-c2ccc3ncc4c(c3c2)n(-c2cn(C(C)C)nc2C)c(=S)n4C)cn1 [Example 241, 1-(1-isopropyl-3-methyl-1H-pyrazol-4-yl)-3-methyl-8-(6-(methylamino)pyridin-3-yl)-1H-imidazo[4,5-c]quinoline-2(3H)-thione]
6.22	7.26	7.64	Cc1nn(C(C)C)cc1-n1c(=O)n(C)c2cnc3ccc(-c4cnc5c(c4)COC(=O)N5C)cc3c21 [Example 170, 1-(1-Isopropyl-3-methyl-1H-pyrazol-4-yl)-3-methyl-8-(1-methyl-2-oxo-1,4-dihydro-2H-pyrido[2,3-d][1,3]oxazin-6-yl)-1,3-dihydro-imidazo[4,5-c]quinolin-2-one]
7.96	8.05	> 8.52	CCOCc1cc(-c2ccc3ncc4c(c3c2)n(-c2cn(C)nc2Cl)c(=O)n4C)cnc1N [Example 166.4, 8-(6-Amino-5-ethoxymethyl-pyridin-3-yl)-1-(3-chloro-1-methyl-1H-pyrazol-4-yl)-3-methyl-1,3-dihydro-imidazo[4,5-c]quinolin-2-one]
7.66	8.30	8.10	Cc1nn(C)cc1-n1c(=O)n(C)c2cnc3ccc(-c4ccc(-c5ncc[nH]5)cc4)cc3c21 [Example 77, 1-(1,3-Dimethyl-1H-pyrazol-4-yl)-8-[4-(1H-imidazol-2-yl)-phenyl]-3-methyl-1,3-dihydro-imidazo[4,5-c]quinolin-2-one]
7.08	> 8.52	8.52	CNS(=O)(=O)c1cccc(-c2ccc3ncc4c(c3c2)n(-c2cn(C)nc2C)c(=O)n4C)c1 [Example 39, 3-[1-(1,3-Dimethyl-1H-pyrazol-4-yl)-3-methyl-2-oxo-2,3-dihydro-1H-imidazo[4,5-c]quinolin-8-yl]-N-methyl-benzenesulfonamide]
6.77	7.20	7.42	Cc1cc(-n2c(=O)n(C)c3cnc4ccc(-c5cnc(F)c(N)c5)cc4c32)n(C)n1 [Example 149.3, 8-(5-Amino-6-fluoro-pyridin-3-yl)-1-(2,5-dimethyl-2H-pyrazol-3-yl)-3-methyl-1,3-dihydro-imidazo[4,5-c]quinolin-2-one]
7.11	7.36	8.15	Cc1nn(C)c(C)c1-n1c(=O)n(C)c2cnc3ccc(-c4cnc(Cl)c(N)c4)cc3c21 [Example 152.3, 8-(5-Amino-6-chloro-pyridin-3-yl)-3-methyl-1-(1,3,5-trimethyl-1H-pyrazol-4-yl)-1,3-dihydro-imidazo[4,5-c]quinolin-2-one]
